Experimental data taken from patent US10226509B2, “Lymphangiogenesis inhibitors for cancer and for graft survival” (TUFTS UNIVERSITY, priority 2014, dated 2019).
Entries after “also recorded” stand apart in the source; their conditions may differ.

B1: VEGF-C: lymphangiogenic growth factor used as positive control (protein)
chain: AHYNTEILKSIDNEWRKTQCMPREVCIDVGKEFGVATNTFFKPPCVSVYRCGGCCNSEGLQCMNTSTSYLSKTLFEITVPLSQGPKPVTISFANHTSCRCMSKLDVYRQVHSIIRR

Columns and labels:
[1] = test system: VEGF-A-induced LEC sprouting; assay: LEC sprouting assay: VEGF-A-induced sprouting; type: cell-based, human; details: VEGF-A 50 ng/ml; 10 μg/ml
Procedure: LEC spheroids were generated by seeding primary LECs at passage 4 or 5 in each well of 384-well hanging-drop plates (3D Biomatrix) in complete EGM-2 MV medium containing 0.25% methyl cellulose according to the manufacturer's instructions (750 cells/well). After 18 hours, LEC spheroids were collected, resuspended in serum-free EBM-2 basal medium, and mixed with collagen solution (PureCol collagen, Advanced BioMatrix, 2.2 mg/ml in M199 medium, pH adjusted to 7.4 with NaHCO3 and NaOH). Aliquots of the LEC spheroid/collagen mixture (250 μl/well of 48-well plate) were incubated in the presence or absence of various test agents for 24 hr. […] Fluorescent images were acquired using the EVOS FL cell imaging system, pixels were inverted for better visualization and cumulative length of each sprout was calculated. Results were expressed as fold change compared to corresponding controls. […]
In addition, investigations were performed to determine whether VEGF-A/VEGFR-2 pathway, which also promotes lymphangiogenesis, is involved in Gal-8-mediated lymphangiogenesis. LEC spheroids were stimulated with Gal-8 (0.75 μM) in the presence or absence of VEGFR-3-Fc, VEGFR-2-Fc (10 μg/ml), Avastin (bevacizumab) (10 μg/ml) or control IgG (10 μg/ml) for 24 hours and then accumulated sprout lengths were quantified. […]

[2] = test system: Gal-8-induced LEC sprouting; assay: LEC sprouting assay: Gal-8-induced sprouting with inhibitors or knockdown; type: cell-based, human; details: Gal-8 0.75 μM, 24 h; TDG 20 mM; LY294002 20 μM; U0126 20 μM; PD0325901 1 μM; Avastin 10 μg/ml; Obtustatin 4 μM; antibodies 20 μg/ml; siRNA-transfected LECs
Procedure: LEC spheroids were generated by seeding primary LECs at passage 4 or 5 in each well of 384-well hanging-drop plates (3D Biomatrix) in complete EGM-2 MV medium containing 0.25% methyl cellulose according to the manufacturer's instructions (750 cells/well). After 18 hours, LEC spheroids were collected, resuspended in serum-free EBM-2 basal medium, and mixed with collagen solution (PureCol collagen, Advanced BioMatrix, 2.2 mg/ml in M199 medium, pH adjusted to 7.4 with NaHCO3 and NaOH). Aliquots of the LEC spheroid/collagen mixture (250 μl/well of 48-well plate) were incubated in the presence or absence of various test agents for 24 hr. At the end of the incubation period, spheroids were stained with Calcein AM (Invitrogen, 1 μg/mL, 37° C., and 30 min). Fluorescent images were acquired using the EVOS FL cell imaging system, pixels were inverted for better visualization and cumulative length of each sprout was calculated. Results were expressed as fold change compared to corresponding controls. […] Test agents used included thiodigalactoside (10 to 50 mM, Carbosynth), 3′-sialyl lactose (2 to 10 mM, Carbosynth), 6′-sialyl lactose (2 to 10 mM, Carbosynth), LY294002 (20 μM, Abeam), U0126 (20 μM, Abeam), PD0325901 (1 μM, Selleckchem), human VEGFR-3-Fc chimera (10 μg/ml, R&D), human VEGFR-2-Fc chimera (10 μg/ml, R&D), Avastin (10 μg/ml, bevacizumab, Genentech/Roche), human control IgG (10 μg/ml, Southern Biotech), anti-human podoplanin functional grade antibody (10 μg/ml, eBioscience), and rat IgG2a κ isotype control functional grade antibody (10 μg/ml, eBioscience).
To determine the role of these pathways on Gal-8-induced lymphangiogenesis, LEC spheroids were stimulated with Gal-8 (0.75 μM) in the presence or absence of PI3K inhibitor (LY294002, 20 μM) and two different MEK inhibitors (U0126, 20 μM; PD0325901, 1 μM). After overnight treatment with Gal-8, accumulated sprout lengths were quantified.

[3] = test system: VEGF-C-induced LEC sprouting; assay: LEC sprouting assay: VEGF-C-induced sprouting; type: cell-based, human
Procedure: LEC spheroids were generated by seeding primary LECs at passage 4 or 5 in each well of 384-well hanging-drop plates (3D Biomatrix) in complete EGM-2 MV medium containing 0.25% methyl cellulose according to the manufacturer's instructions (750 cells/well). After 18 hours, LEC spheroids were collected, resuspended in serum-free EBM-2 basal medium, and mixed with collagen solution (PureCol collagen, Advanced BioMatrix, 2.2 mg/ml in M199 medium, pH adjusted to 7.4 with NaHCO3 and NaOH). Aliquots of the LEC spheroid/collagen mixture (250 μl/well of 48-well plate) were incubated in the presence or absence of various test agents for 24 hr. At the end of the incubation period, spheroids were stained with Calcein AM (Invitrogen, 1 μg/mL, 37° C., and 30 min). Fluorescent images were acquired using the EVOS FL cell imaging system, pixels were inverted for better visualization and cumulative length of each sprout was calculated. Results were expressed as fold change compared to corresponding controls. It was observed that sprout lengths vary from passages to passages. Test agents used included thiodigalactoside (10 to 50 mM, Carbosynth), 3′-sialyl lactose (2 to 10 mM, Carbosynth), 6′-sialyl lactose (2 to 10 mM, Carbosynth), LY294002 (20 μM, Abeam), U0126 (20 μM, Abeam), PD0325901 (1 μM, Selleckchem), human VEGFR-3-Fc chimera (10 μg/ml, R&D), human VEGFR-2-Fc chimera (10 μg/ml, R&D), Avastin (10 μg/ml, bevacizumab, Genentech/Roche), human control IgG (10 μg/ml, Southern Biotech), anti-human podoplanin functional grade antibody (10 μg/ml, eBioscience), and rat IgG2a κ isotype control functional grade antibody (10 μg/ml, eBioscience).
In this assay, the LEC spheroids were treated with VEGF-C (50 ng/ml) in the presence or absence of 0.75 μM of Gal-8 for 24 hours, and then accumulated sprout lengths were quantified. […] Synergistic effect of Gal-8 on VEGF-C-induced LEC sprouting was dose-dependent. […] At concentrations >0.5 μM Gal-8, there was no further increase in the degree of VEGF-C-induced lymphangiogenesis (FIG. 4C).
To further characterize the role of carbohydrate-mediated recognition in VEGF-C-induced lymphangiogenesis, LEC spheroids were stimulated with VEGF-C (50 ng/ml) in the presence or absence of three different galectin inhibitors. […] Therefore, the data establishes the critical role of Gal-8-mediated carbohydrate-mediated recognition in VEGF-C-induced lymphangiogenesis.

mouse corneas [4] = assay: Mouse model of suture-induced inflammatory corneal lymphangiogenesis; type: in vivo; details: subconjunctival injections days 0, 2, 4, 6; TDG 200 mM; Gal-8N 15 μg; Prox1-EGFP mice
Source text: The mouse model of suture-induced lymphangiogenesis was used as described in Cho, Y. K., et al. 2012. Invest Ophthalmol Vis Sci 53:685-692 and Cursiefen, C., et al. 2004. Invest Ophthalmol Vis Sci 45:1117-1124. Two 11-0 sutures were placed intrastromally about 2 mm from the limbus at the 12 and 6 o'clock positions in the Prox1-EGFP reporter mice. After surgery, a veterinary ophthalmic ointment was applied to prevent infection. Sutures were left in place for 7 days. To assess the effect of galectin inhibitors on suture-induced lymphangiogenesis, 10 μL of vehicle (PBS), TDG (200 mM in PBS), or Gal-8N (15 μg in PBS) were subconjunctivally injected on post-surgery days 0, 2, 4 and 6 using a 32 gauge needle with a 10 μL syringe (Hamilton). On day 7 post-surgery, mouse corneas were harvested and processed for staining with anti-LYVE-1 as described in examples herein. The areas of lymphatic vessels covering the whole corneas were calculated.
There is much interest in finding ways to inhibit prolymphangiogenic factors as means of suppressing cancer metastasis, transplant rejection and chronic inflammation. To determine whether galectins can be targeted to control lymphangiogenesis, a well-established in vivo model of lymphangiogenesis was used. […] At the end of the treatment period, lymphatic vessel areas were quantified.

PDPN = assay: Cell surface expression of PDPN by flow cytometry; type: cell-based, human; details: 30 min post-treatment; VEGF-C 50 ng/ml
Procedure: (§1) Primary LECs were serum-starved overnight in basal EBM-2 medium. The cells were incubated with or without VEGF-C (50 ng/ml, PeproTech) or Gal-8 (0.2 μM) in serum-free EBM-2 medium for 10 and 30 min. At the end of the incubation period, cells were lifted with StemPro® Accutase® cell dissociation reagent (Invitrogen), washed with PBS and fixed with 4% paraformaldehyde/PBS on ice for 10 min, and were then stained using rat anti-human PDPN (1:500, BioLegend) and mouse anti-human VEGFR-3 (clone 9D9F9) (1:100, BioLegend) primary antibodies in cell staining buffer (BioLegend, 45 min on ice) and Alexa Fluor® 488 donkey anti-rat and Alexa Fluor® 647 anti-mouse secondary antibodies (1:1000, Invitrogen, 30 min on ice). For negative control, the primary antibodies were omitted. The stained cells were fixed with 2% paraformaldehyde/PBS, analyzed with BD FACSCalibur, and the mean fluorescence intensity of VEGFR-3 and PDPN were quantified with the FlowJo software (version 9.5.2).

mouse corneas [5] = assay: Corneal mouse micropocket lymphangiogenesis assay; type: in vivo; details: for mean lymphatic vessel areas: seven days
Procedure: The corneal micropocket lymphangiogenesis assay was performed using implants containing a test agent, hydron (polyhydroxylmethylmethacrylate), and sucralfate (Cao, R., et al. 2011. Nat Protoc 6:817-826; Rogers, M. S., et al. 2007. Nat Protoc 2:2545-2550). Test agents included full-length Gal-8 (40-320 ng/pellet) and VEGF-C (160 ng/pellet). Implants containing hydron and sucralfate alone served as negative controls. The mice were anesthetized by intraperitoneal injection of a mixture of ketamine (90-120 mg/kg) and xylazine (10 mg/kg). The eyes were topically anesthetized with proparacaine and were gently proptosed (forwardly displaced) with forceps. Using a corneal blade and a stereoscope, intrastromal linear keratotomy was performed about 2 mm from the limbus. Using a von Graefe knife (Miltex), a pocket was extended towards the limbus, and the pellet was maneuvered into the pocket. The wound was coated with a veterinary ophthalmic ointment (Akorn) to prevent infection. Mouse corneas were harvested 7 days after pellet implantation, fixed in 4% paraformaldehyde/PBS (1 hour at 4° C.), washed with PBS, and fixed again in iced acetone (15 min at −20° C.). To quantitate the extent of lymphangiogenesis in Prox-1-EGFP reporter mice, flat mounts of the dissected corneas were evaluated by fluorescence microscopy. Fluorescent images were acquired by EVOS FL cell imaging system (Invitrogen), and vessel areas were calculated using the formula (Rogers, M. S., et al. 2007. Nat Protoc 2:2545-2550): vessel area=pellet distance×vessel length×clock hours×[…]. To quantitate the extent of lymphangiogenesis in WT and PDPN-deficient mice, corneas were stained with eFluor 570-anti-mouse LYVE-1 (clone ALY7, eBioScience, and 1:75) in 10% goat serum/0.2% Triton X-100/PBS overnight, 4° C. After several washes with 0.2% Triton X-100/PBS, the corneas were flattened and mounted with VECTASHIELD mounting medium (Vector Laboratories) and evaluated by fluorescence microscopy. In some examples, for comparisons, corneas were stained with Alexa Fluor® 488-anti-mouse CD31 (clone MEC13.3, 1:100, BioLegend) to visualize blood vessels.

VEGFR-3 = assay: Cell surface expression of VEGFR-3 by flow cytometry; type: cell-based, human; details: Gal-8 0.2 μM or VEGF-C 50 ng/ml
Procedure: as §1

Molecule	effect on VEGF-A-induced LEC sprouting (in words) [1]	effect on Gal-8-induced LEC sprouting (in words) [2]	effect on VEGF-C-induced LEC sprouting (in words) ([3]; VEGF-C 50 ng/ml, 24 h)	effect on the synergistic effect of Gal-8 on VEGF-C-induced sprouting ([3]; VEGF-C plus Gal-8)	effect on suture-induced corneal lymphangiogenesis (mouse corneas [4])	decrease of cell surface expression of PDPN (PDPN)	extent of vessel formation in galectin-8 KO mice compared to WT (mouse corneas [5]; 160 ng pellet, one week)	mean lymphatic vessel areas (mouse corneas [5]; PDPN KO mice, 160 ng pellet) [mm^2]	mean lymphatic vessel areas (mouse corneas [5]; WT mice, 160 ng pellet) [mm^2]	lymphangiogenesis induced by pellet in cornea (in words) (mouse corneas [5]; one week after implantation, Gal-8 40-320 ng/pellet, VEGF-C 160 ng, WT or Prox1-EGFP mice)	decrease of cell surface expression of VEGFR-3 (VEGFR-3)
Avastin: an antibody targeted against VEGF-A	almost completely abolished	had no effect									
OC[C@H]1O[C@@H](S[C@@H]2O[C@H](CO)[C@H](O)[C@H](O)[C@H]2O)[C@H](O)[C@@H](O)[C@H]1O [TDG, thiodigalactoside, reference compound]		almost completely inhibited	inhibited	almost completely inhibited	significantly suppressed						
B1						about 5%	significantly reduced	0.67	1.35	markedly induced both hemangiogenesis and lymphangiogenesis; also recorded: induce robust growth of lymphatic vessels	about 40%
